This note sets out measurements from patent US8722376B2, “Firefly luciferase” (Olympus Corporation, priority 2011, dated 2014).

In the assay the target is T1, GL3 (luciferase derived from a known firefly) (Photinus pyralis, UniProt P08659, K549A/L550V/N119G/N50D/S548I).
T1 construct: measured as purified protein in a similar manner to SP1
Briefly: Km of GL3 luciferase (luminescence kinetic analysis). The class given is biochemical. The following applies: read-out: Km for ATP; 0.1 M Tris-HCl (pH 8.0), D-luciferin, MgSO4; measured in a similar manner.

T1 sequence (P08659 whole entry N50D/N119G/S548I/K549A/L550V): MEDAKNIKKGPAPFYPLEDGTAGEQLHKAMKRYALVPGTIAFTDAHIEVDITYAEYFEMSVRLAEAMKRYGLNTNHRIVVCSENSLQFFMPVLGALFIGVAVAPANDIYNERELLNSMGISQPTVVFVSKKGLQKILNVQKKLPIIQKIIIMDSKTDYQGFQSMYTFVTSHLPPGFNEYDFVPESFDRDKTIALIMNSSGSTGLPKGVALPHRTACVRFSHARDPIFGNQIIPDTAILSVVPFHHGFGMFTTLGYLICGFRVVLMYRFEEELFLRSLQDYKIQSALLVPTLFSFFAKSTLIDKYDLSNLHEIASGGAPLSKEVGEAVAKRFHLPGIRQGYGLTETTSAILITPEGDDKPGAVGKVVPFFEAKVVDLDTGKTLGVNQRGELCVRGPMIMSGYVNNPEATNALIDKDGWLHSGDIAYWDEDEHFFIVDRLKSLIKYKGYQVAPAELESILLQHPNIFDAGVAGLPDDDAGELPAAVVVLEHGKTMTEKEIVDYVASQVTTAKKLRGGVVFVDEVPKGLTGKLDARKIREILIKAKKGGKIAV

For `Nc1ncnc2c1ncn2[C@@H]1O[C@H](COP(=O)(O)OP(=O)(O)OP(=O)(O)O)[C@@H](O)[C@H]1O` [ATP], the Michaelis-Menten constant (Km) (commonly the substrate concentration at which the rate is half of its maximum) was 71.3 µM.
